Assay results: PubChem BioAssay (NCI)
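In this assay, cells in 96-well plates receive the compound at five concentrations for 48 hours. Endpoints are linearly interpolated between the surrounding concentrations. Here, GI50 denotes the concentration required for 50% inhibition of growth. The concentration for full growth arrest is given as TGI.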

Assays:
Experiment in all cases: DTP human tumour cell line panel, 48 h
NCI-H226 lung = tested on: NCI-H226 lung
LOX IMVI melanoma = tested on: LOX IMVI melanoma
T-47D breast = tested on: T-47D breast
HOP-92 NSCLC = tested on: HOP-92 NSCLC
UACC-62 melanoma = tested on: UACC-62 melanoma
CCRF-CEM leukemia = tested on: CCRF-CEM leukemia
ACHN renal = tested on: ACHN renal
NCI/ADR-RES ovarian = tested on: NCI/ADR-RES ovarian
HS 578T breast = tested on: HS 578T breast
786-0 renal = tested on: 786-0 renal
NCI-H460 lung = tested on: NCI-H460 lung
HCT-116 colon = tested on: HCT-116 colon
A549 NSCLC = tested on: A549 NSCLC
SW-620 colon = tested on: SW-620 colon
OVCAR-4 ovarian = tested on: OVCAR-4 ovarian
HCT-15 colon = tested on: HCT-15 colon
EKVX NSCLC = tested on: EKVX NSCLC
SF-268 CNS = tested on: SF-268 CNS
SK-MEL-28 melanoma = tested on: SK-MEL-28 melanoma
MOLT-4 leukemia = tested on: MOLT-4 leukemia
HL-60(TB) leukemia = tested on: HL-60(TB) leukemia
COLO 205 colon = tested on: COLO 205 colon
HCC-2998 colon = tested on: HCC-2998 colon
SK-OV-3 ovarian = tested on: SK-OV-3 ovarian
SK-MEL-5 melanoma = tested on: SK-MEL-5 melanoma
K-562 leukemia = tested on: K-562 leukemia
UACC-257 melanoma = tested on: UACC-257 melanoma
SF-295 CNS = tested on: SF-295 CNS
SNB-75 CNS = tested on: SNB-75 CNS
DU-145 prostate = tested on: DU-145 prostate
A498 renal = tested on: A498 renal
U251 CNS = tested on: U251 CNS
PC-3 prostate = tested on: PC-3 prostate
MDA-MB-231 breast = tested on: MDA-MB-231 breast
MALME-3M melanoma = tested on: MALME-3M melanoma
NCI-H23 lung = tested on: NCI-H23 lung
BT-549 breast = tested on: BT-549 breast
M14 melanoma = tested on: M14 melanoma
OVCAR-8 ovarian = tested on: OVCAR-8 ovarian
SR leukemia = tested on: SR leukemia
NCI-H522 lung = tested on: NCI-H522 lung
MCF7 breast = tested on: MCF7 breast
HOP-62 NSCLC = tested on: HOP-62 NSCLC
RXF 393 renal = tested on: RXF 393 renal
CAKI-1 renal = tested on: CAKI-1 renal
SNB-19 CNS = tested on: SNB-19 CNS
TK-10 renal = tested on: TK-10 renal
OVCAR-5 ovarian = tested on: OVCAR-5 ovarian
MDA-MB-435 = tested on: MDA-MB-435
UO-31 renal = tested on: UO-31 renal
HT29 colon = tested on: HT29 colon
SN12C renal = tested on: SN12C renal
SF-539 CNS = tested on: SF-539 CNS
IGROV1 ovarian = tested on: IGROV1 ovarian
KM12 colon = tested on: KM12 colon

SMILES: C#C[C@]1(O)CC[C@H]2[C@@H]3CC=C4c5sc(Nc6cccc(C)n6)nc5CC[C@]4(C)[C@H]3CC[C@@]21C
- GI50 (NCI-H226 lung): 2690 nM
- TGI (NCI-H226 lung): 12100 nM
- GI50 (LOX IMVI melanoma): 1390 nM
- TGI (LOX IMVI melanoma): 2790 nM
- GI50 (T-47D breast): 1980 nM
- TGI (T-47D breast): 6640 nM
- GI50 (HOP-92 NSCLC): 1590 nM
- TGI (HOP-92 NSCLC): 4150 nM
- GI50 (UACC-62 melanoma): 1490 nM
- TGI (UACC-62 melanoma): 3300 nM
- GI50 (CCRF-CEM leukemia): 1360 nM
- TGI (CCRF-CEM leukemia): 6350 nM
- GI50 (ACHN renal): 1200 nM
- TGI (ACHN renal): 3550 nM
- GI50 (NCI/ADR-RES ovarian): 1820 nM
- TGI (NCI/ADR-RES ovarian): 7410 nM
- GI50 (HS 578T breast): 343 nM
- TGI (HS 578T breast): 2020 nM
- GI50 (786-0 renal): 437 nM
- TGI (786-0 renal): 1960 nM
- GI50 (NCI-H460 lung): 1460 nM
- TGI (NCI-H460 lung): 3040 nM
- GI50 (HCT-116 colon): 1350 nM
- TGI (HCT-116 colon): 3040 nM
- GI50 (A549 NSCLC): 1890 nM
- TGI (A549 NSCLC): 8310 nM
- GI50 (SW-620 colon): 1560 nM
- TGI (SW-620 colon): 3090 nM
- GI50 (OVCAR-4 ovarian): 3020 nM
- TGI (OVCAR-4 ovarian): 16800 nM
- GI50 (HCT-15 colon): 1130 nM
- TGI (HCT-15 colon): 2710 nM
- GI50 (EKVX NSCLC): 1390 nM
- TGI (EKVX NSCLC): 10100 nM
- GI50 (SF-268 CNS): 2020 nM
- TGI (SF-268 CNS): 7370 nM
- GI50 (SK-MEL-28 melanoma): 543 nM
- TGI (SK-MEL-28 melanoma): 2280 nM
- GI50 (MOLT-4 leukemia): 552 nM
- TGI (MOLT-4 leukemia): 3050 nM
- GI50 (HL-60(TB) leukemia): 710 nM
- TGI (HL-60(TB) leukemia): 3460 nM
- GI50 (COLO 205 colon): 1760 nM
- TGI (COLO 205 colon): 3380 nM
- GI50 (HCC-2998 colon): 2190 nM
- TGI (HCC-2998 colon): 5520 nM
- GI50 (SK-OV-3 ovarian): 1370 nM
- TGI (SK-OV-3 ovarian): 3250 nM
- GI50 (SK-MEL-5 melanoma): 1840 nM
- TGI (SK-MEL-5 melanoma): 3700 nM
- GI50 (K-562 leukemia): 666 nM
- TGI (K-562 leukemia): 3100 nM
- GI50 (UACC-257 melanoma): 1620 nM
- TGI (UACC-257 melanoma): 3460 nM
- GI50 (SF-295 CNS): 329 nM
- TGI (SF-295 CNS): 1360 nM
- GI50 (SNB-75 CNS): 1090 nM
- TGI (SNB-75 CNS): 8320 nM
- GI50 (DU-145 prostate): 2800 nM
- TGI (DU-145 prostate): 12000 nM
- GI50 (A498 renal): 1280 nM
- TGI (A498 renal): 2620 nM
- GI50 (U251 CNS): 558 nM
- TGI (U251 CNS): 1930 nM
- GI50 (PC-3 prostate): 979 nM
- TGI (PC-3 prostate): 5540 nM
- GI50 (MDA-MB-231 breast): 1240 nM
- TGI (MDA-MB-231 breast): 3380 nM
- GI50 (MALME-3M melanoma): 1400 nM
- TGI (MALME-3M melanoma): 3360 nM
- GI50 (NCI-H23 lung): 1570 nM
- TGI (NCI-H23 lung): 6030 nM
- GI50 (BT-549 breast): 1490 nM
- TGI (BT-549 breast): 3310 nM
- GI50 (M14 melanoma): 1520 nM
- TGI (M14 melanoma): 3570 nM
- GI50 (OVCAR-8 ovarian): 1450 nM
- TGI (OVCAR-8 ovarian): 4780 nM
- GI50 (SR leukemia): 403 nM
- TGI (SR leukemia): 2090 nM
- GI50 (NCI-H522 lung): 1660 nM
- TGI (NCI-H522 lung): 3260 nM
- GI50 (MCF7 breast): 1240 nM
- TGI (MCF7 breast): 3520 nM
- GI50 (HOP-62 NSCLC): 1330 nM
- TGI (HOP-62 NSCLC): 2930 nM
- GI50 (RXF 393 renal): 230 nM
- TGI (RXF 393 renal): 579 nM
- GI50 (CAKI-1 renal): 1530 nM
- TGI (CAKI-1 renal): 4340 nM
- GI50 (SNB-19 CNS): 1200 nM
- TGI (SNB-19 CNS): 3820 nM
- GI50 (TK-10 renal): 2460 nM
- TGI (TK-10 renal): 7670 nM
- GI50 (OVCAR-5 ovarian): 1700 nM
- TGI (OVCAR-5 ovarian): 3780 nM
- GI50 (MDA-MB-435): 2240 nM
- TGI (MDA-MB-435): 6440 nM
- GI50 (UO-31 renal): 1140 nM
- TGI (UO-31 renal): 2560 nM
- GI50 (HT29 colon): 1500 nM
- TGI (HT29 colon): 3170 nM
- GI50 (SN12C renal): 1620 nM
- TGI (SN12C renal): 3200 nM
- GI50 (SF-539 CNS): 280 nM
- TGI (SF-539 CNS): 1170 nM
- GI50 (IGROV1 ovarian): 2740 nM
- TGI (IGROV1 ovarian): 11500 nM
- GI50 (KM12 colon): 1850 nM
- TGI (KM12 colon): 5990 nM
